From the NIST ThermoML archive (doi:10.1021/je049721u)

Assay: mn = molality of the nth substance listed, in mol/kg
Details: 101.3 kPa, Liquid; for speed of sound: Pulse-echo method

[Mn+2].[O-][Cl+3]([O-])([O-])[O-].[O-][Cl+3]([O-])([O-])[O-] [manganese (II) perchlorate] + CN(C)C=O
Details | mass density, 283.15 K [kg/m3] | mass density, 293.15 K [kg/m3] | mass density, 298.15 K [kg/m3] | mass density, 303.15 K [kg/m3] | mass density, 313.15 K [kg/m3] | mass density, 323.15 K [kg/m3] | mass density, 333.15 K [kg/m3] | speed of sound, 298.15 K [m/s]
m1 = 0.04109 | 966.326 | 956.852 | 952.107 | 947.355 | 937.821 | 928.242 | 918.616 | 1460.8
m1 = 0.05823 | 969.773 | 960.312 | 955.574 | 950.83 | 941.313 | 931.759 | 922.147 | –
m1 = 0.08396 | 974.96 | 965.52 | 960.793 | 956.059 | 946.568 | 937.04 | 927.465 | 1464.6
m1 = 0.1024 | 978.695 | 969.265 | 964.546 | 959.822 | 950.346 | 940.834 | 931.273 | –
m1 = 0.1233 | 982.926 | 973.513 | 968.799 | 964.082 | 954.629 | 945.142 | 935.612 | 1468.2
m1 = 0.1616 | 990.785 | 981.396 | 976.698 | 971.997 | 962.575 | 953.124 | 943.633 | 1471.4
m1 = 0.2007 | 998.895 | 989.531 | 984.846 | 980.162 | 970.768 | 961.357 | 951.918 | 1475
m1 = 0.2395 | 1007.03 | 997.69 | 993.019 | 988.351 | 978.996 | 969.623 | 960.225 | 1478.3
m1 = 0.2793 | 1015.47 | 1006.16 | 1001.5 | 996.842 | 987.519 | 978.179 | 968.812 | 1481.9
m1 = 0.3166 | 1023.51 | 1014.22 | 1009.58 | 1004.94 | 995.645 | 986.342 | 977.019 | 1485.6
m1 = 0.3529 | 1031.38 | 1022.11 | 1017.48 | 1012.85 | 1003.59 | 994.313 | 985.025 | 1488.9
m1 = 0.3885 | 1039.21 | 1029.96 | 1025.35 | 1020.73 | 1011.5 | 1002.27 | 993.029 | 1492.5
